These results are taken from patent US12415785B2, “Compound modulators of sting” (CTXT PTY LTD, priority 2019, dated 2025).

The structures appear in SMILES notation.

In assay [1] the target is human HAQ isoform of STING (THP-1 STING Lucia ISG cells) (Homo sapiens (Human), UniProt Q86WV6, G230A/H232R/R293Q/R71H). Description: THP-1 STING Lucia ISG reporter cell line assay. Format: cell-based. The note with it: 24 h incubation, QUANTI-Luc luminescence. The essentials: (§1)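 THP-1 STING Lucia ISG cells (HAQ STING) or THP-1-Dual KI-hSTING-R232 cells (WT STING) treated 24 h at 37 °C with 11-point, 2.5-fold compound dilutions. ISG-driven Lucia luciferase read by luminescence, normalised to untreated wells and 40 μM ML RR-S2 CDA positive control; EC50 derived.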
Chain of human HAQ isoform of STING (THP-1 STING Lucia ISG cells) (Q86WV6 whole entry R71H/G230A/H232R/R293Q, canonical isoform): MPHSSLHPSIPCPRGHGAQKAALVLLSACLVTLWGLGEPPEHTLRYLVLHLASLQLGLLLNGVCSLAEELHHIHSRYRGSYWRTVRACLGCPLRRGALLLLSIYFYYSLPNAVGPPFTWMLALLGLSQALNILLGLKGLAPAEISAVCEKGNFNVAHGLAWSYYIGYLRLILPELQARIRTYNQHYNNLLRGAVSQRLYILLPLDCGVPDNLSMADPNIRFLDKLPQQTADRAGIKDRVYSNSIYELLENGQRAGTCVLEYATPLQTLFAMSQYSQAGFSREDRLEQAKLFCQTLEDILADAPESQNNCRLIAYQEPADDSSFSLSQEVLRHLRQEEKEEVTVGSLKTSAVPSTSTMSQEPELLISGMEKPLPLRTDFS

Another assay concerns the target human STING (WT) (Homo sapiens (Human), UniProt Q86WV6, H232R). Nature of the assay: Differential scanning fluorimetry (DSF), huSTING (WT). Format: binding. As to conditions: 2 μM protein, compound 100 μM; Tm with ligand minus Tm of protein alone (1% DMSO); read-out: DSF huSTING (WT) ΔTm (° C.). The essentials:
(§2)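 Recombinant His-TEV-tagged human STING allelic variants expressed in E. coli and purified by IMAC. Thermal unfolding followed by dye fluorescence (excitation 490 nm, emission 570 nm) from 20° C. to 100° C. in 0.5° C. steps, in triplicate, with and without ligand; Tm taken from the transition inflection point.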
A general note: DSF heats the sample and reads unfolding from a dye or from intrinsic fluorescence.

For a further assay, the target named is human STING (HAQ) (Homo sapiens, UniProt Q86WV6, G230A/H232R/R293Q). Nature of the assay: Differential scanning fluorimetry (DSF), huSTING (HAQ). Format: binding. The note with it: 2 μM protein, compound 100 μM; Tm with ligand minus Tm of protein alone (1% DMSO); read-out: DSF huSTING (HAQ) ΔTm (° C.). The essentials: as §2
Chain of human STING (HAQ) (Q86WV6 whole entry G230A/H232R/R293Q, looked up, canonical isoform): as the sequence (Q86WV6 whole entry R71H/G230A/H232R/R293Q, canonical isoform) above, with H71R counted along it
In assay [2] the target is WT human STING isoform (THP-1-Dual KI-hSTING-R232 cells) (Homo sapiens (Human), UniProt Q86WV6, H232R). Description: THP-1-Dual KI-hSTING-R232 reporter cell line assay. Format: cell-based. The note with it: 24 h incubation, QUANTI-Luc luminescence. The essentials:
as §1

Chain of human STING (WT) (Q86WV6 other isoform, or with tags, fused parts or gaps, stated change not applied): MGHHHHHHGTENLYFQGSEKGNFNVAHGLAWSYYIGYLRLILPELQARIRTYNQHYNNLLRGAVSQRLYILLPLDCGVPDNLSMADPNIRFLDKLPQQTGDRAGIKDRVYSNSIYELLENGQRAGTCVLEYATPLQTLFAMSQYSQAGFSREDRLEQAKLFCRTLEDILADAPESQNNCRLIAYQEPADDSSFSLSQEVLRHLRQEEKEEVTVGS
Chain of WT human STING isoform (THP-1-Dual KI-hSTING-R232 cells) (Q86WV6 whole entry H232R, canonical isoform): as the sequence (Q86WV6 whole entry R71H/G230A/H232R/R293Q, canonical isoform) above, with H71R, A230G, Q293R counted along it

As for `COc1c(C(N)=O)ccc2c1nc(-c1c(F)cccc1C(=O)O)n2CCn1c(-c2c(F)cccc2C(=O)O)nc2c(OC)c(C(N)=O)ccc21` [Example 10, 2,2′-(Ethane-1,2-diylbis(5-carbamoyl-4-methoxy-1H-benzo[d]imidazole-1,2-diyl))bis(3-fluorobenzoic acid)], the EC50 in assay [1] was found to be 1590 nM; in assay [2] it was 1390 nM. The ΔTm at 100 µM is 9.63 °C on human STING (WT) and 18.4 °C on human STING (HAQ).

For the compound `COc1c(C(N)=O)ccc2c1nc(-c1ccc(Cl)c(Cl)c1-c1nn[nH]n1)n2CCn1c(-c2ccc(Cl)c(Cl)c2-c2nn[nH]n2)nc2c(OC)c(C(N)=O)ccc21` [Example 37, 1,1′-(Ethane-1,2-diyl)bis(2-(3,4-dichloro-2-(2H-tetrazol-5-yl)phenyl)-4-methoxy-1H-benzo[d]imidazole-5-carboxamide)], the concentration for a half-maximal effect (EC50) in assay [1] and in assay [2] was greater than 40000 nM in each case. In addition, the ΔTm at 100 µM at human STING (WT) is -0.24 °C; on human STING (HAQ), 2.8 °C.

As for `COc1c(C(N)=O)cc(F)c2c1nc(-c1c(F)cc(F)cc1C(=O)O)n2CCn1c(-c2c(F)cc(F)cc2C(=O)O)nc2c(OC)c(C(N)=O)cc(F)c21` [Example 18, 2,2′-(Ethane-1,2-diylbis(5-carbamoyl-7-fluoro-4-methoxy-1H-benzo[d]imidazole-1,2-diyl))bis(3,5-difluorobenzoic acid)], the EC50 in assay [1] turned out to be 326 nM; in assay [2], 566 nM. For the same compound, the ΔTm at 100 µM at human STING (WT) came to 2.4 °C; on human STING (HAQ), 19.1 °C.

In the case of `COc1c(C(N)=O)ccc2c1nc(-c1ccc(Cl)cc1C(=O)O)n2CCn1c(-c2ccc(Cl)cc2C(=O)O)nc2c(OC)c(C(N)=O)ccc21` [Example 1, 6,6′-(Ethane-1,2-diylbis(5-carbamoyl-4-methoxy-1H-benzo[d]imidazole-1,2-diyl))bis(3-chlorobenzoic acid)], the results for the EC50 in assay [1] and in assay [2] were 1070 nM and 895 nM, respectively. For the same compound, the thermal shift (ΔTm) at 100 µM on human STING (WT) came out at 5.07 °C; at human STING (HAQ), 9.44 °C.

In the case of `COc1c(C(N)=O)ccc2c1nc(-c1c(F)cccc1-c1nn[nH]n1)n2CCn1c(-c2c(F)cccc2-c2nn[nH]n2)nc2c(OC)c(C(N)=O)ccc21` [Example 48, 1,1′-(Ethane-1,2-diyl)bis(2-(2-fluoro-6-(2H-tetrazol-5-yl)phenyl)-4-methoxy-1H-benzo[d]imidazole-5-carboxamide)], the EC50 in assay [1] was found to be 415 nM; in assay [2] it was 269 nM. Besides, the results for the ΔTm at 100 µM at human STING (WT) and at human STING (HAQ) were 11.8 °C and 25.5 °C, respectively.

With `COc1c(C(N)=O)ccc2c1nc(-c1c(F)cccc1-c1n[nH]c(=O)o1)n2CCn1c(-c2c(F)cccc2-c2n[nH]c(=O)o2)nc2c(OC)c(C(N)=O)ccc21` [Example 49, 1,1′-(Ethane-1,2-diyl)bis(2-(2-fluoro-6-(5-oxo-4,5-dihydro-1,3,4-oxadiazol-2-yl)phenyl)-4-methoxy-1H-benzo[d]imidazole-5-carboxamide)], the EC50 in assay [1] is 136 nM; in assay [2] it was 191 nM. Further, the values for the shift in melting temperature (ΔTm) at 100 µM on human STING (WT) and on human STING (HAQ) were 10.2 °C and 21.3 °C, respectively.

On to `COc1c(C(N)=O)ccc2c1nc(-c1c(F)cc(Cl)cc1C(=O)O)n2CCn1c(-c2c(F)cc(Cl)cc2C(=O)O)nc2c(OC)c(C(N)=O)ccc21` [Example 11, 2,2′-(ethane-1,2-diylbis(5-carbamoyl-4-methoxy-1H-benzo[d]imidazole-1,2-diyl))bis(5-chloro-3-fluorobenzoic acid)], for which the concentration giving a half-maximal response (EC50) in assay [1] was found to be 830 nM; in assay [2], 683 nM. The ΔTm at 100 µM at human STING (WT) is 10.6 °C; at human STING (HAQ) it was 22.1 °C.

`COc1c(C(N)=O)ccc2c1nc(-c1c(Cl)cccc1-c1nn[nH]n1)n2CCn1c(-c2c(Cl)cccc2-c2nn[nH]n2)nc2c(OC)c(C(N)=O)ccc21` (single isomer, unassigned) [Example 23, 1,1′-(Ethane-1,2-diyl)bis(2-(2-chloro-6-(2H-tetrazol-5-yl)phenyl)-4-methoxy-1H-benzo[d]imidazole-5-carboxamide)]: the EC50 is 2500 nM in assay [1] and 2470 nM in assay [2]. Moreover, the ΔTm at 100 µM worked out at 15 °C at human STING (WT) and 29.2 °C on human STING (HAQ).

Turning to `COc1c(C(N)=O)ccc2c1nc(-c1cc(C)ccc1C(=O)O)n2CCn1c(-c2cc(C)ccc2C(=O)O)nc2c(OC)c(C(N)=O)ccc21` [Example 26, 2,2′-(Ethane-1,2-diylbis(5-carbamoyl-4-methoxy-1H-benzo[d]imidazole-1,2-diyl))bis(4-methylbenzoic acid)], the EC50 in assay [1] was 3380 nM; in assay [2], 3220 nM. Besides, the ΔTm at 100 µM at human STING (WT) was found to be 1.13 °C; on human STING (HAQ) it was 6.33 °C.

`COc1c(C(N)=O)ccc2c1nc(-c1ncc(Cl)cc1C(=O)O)n2CCn1c(-c2ncc(Cl)cc2C(=O)O)nc2c(OC)c(C(N)=O)ccc21` [Example 31, 2,2′-(Ethane-1,2-diylbis(5-carbamoyl-4-methoxy-1H-benzo[d]imidazole-1,2-diyl))bis(5-chloronicotinic acid)]: the EC50 in assay [1] and in assay [2] was greater than 40000 nM throughout. For the same compound, the ΔTm at 100 µM is 0.18 °C on human STING (WT) and 3.98 °C at human STING (HAQ).

For `COc1c(C(N)=O)ccc2c1nc(-c1c(F)cc(F)cc1-c1n[nH]c(=O)o1)n2CCn1c(-c2c(F)cc(F)cc2-c2n[nH]c(=O)o2)nc2c(OC)c(C(N)=O)ccc21` [Example 44, 1,1′-(Ethane-1,2-diyl)bis(2-(2,4-difluoro-6-(5-oxo-4,5-dihydro-1,3,4-oxadiazol-2-yl)phenyl)-4-methoxy-1H-benzo[d]imidazole-5-carboxamide)], the concentration for a half-maximal effect (EC50) in assay [1] was 558 nM; in assay [2], 380 nM. Further, the results for the ΔTm at 100 µM on human STING (WT) and at human STING (HAQ) were 0.88 °C and 13.1 °C, respectively.

Take `NC(=O)c1ccc2c(c1)nc(-c1ccccc1-c1nn[nH]n1)n2CCn1c(-c2ccccc2-c2nnn[nH]2)nc2cc(C(N)=O)ccc21` [Example 5, 2-(2-(1H-Tetrazol-5-yl)phenyl)-1-(2-(2-(2-(2H-tetrazol-5-yl)phenyl)-5-carbamoyl-1H-benzo[d]imidazol-1-yl)ethyl)-1H-benzo[d]imidazole-5-carboxamide]: the EC50 in assay [1] worked out at 24800 nM; in assay [2], 6400 nM. Further, the results for the ΔTm at 100 µM on human STING (WT) and at human STING (HAQ) were 1.33 °C and 6.04 °C, respectively.

`COc1c(C(N)=O)ccc2c1nc(-c1cccc(Cl)c1-c1nn[nH]n1)n2CCn1c(-c2cccc(Cl)c2-c2nn[nH]n2)nc2c(OC)c(C(N)=O)ccc21` [Example 40, 1,1′-(Ethane-1,2-diyl)bis(2-(3-chloro-2-(2H-tetrazol-5-yl)phenyl)-4-methoxy-1H-benzo[d]imidazole-5-carboxamide)]: the half-maximal effective concentration (EC50) in assay [1] and in assay [2] was greater than 40000 nM in each case. Also, the ΔTm at 100 µM on human STING (WT) was -7.45 °C; at human STING (HAQ), -1.74 °C.

Regarding `COc1c(C(N)=O)ccc2c1nc(-c1ccccc1-c1nn[nH]n1)n2CCn1c(-c2ccccc2-c2nn[nH]n2)nc2c(OC)c(C(N)=O)ccc21` [Example 6, 1,1′-(Ethane-1,2-diyl)bis(2-(2-(2H-tetrazol-5-yl)phenyl)-4-methoxy-1H-benzo[d]imidazole-5-carboxamide)], the EC50 in assay [1] was 902 nM; in assay [2], 936 nM. Further, the ΔTm at 100 µM at human STING (WT) stood at 0.94 °C; at human STING (HAQ) it was 5.44 °C.

`COC(=O)c1c(Br)cccc1-c1nc2c(OC)c(C(N)=O)ccc2n1CCn1c(-c2cccc(Br)c2C(=O)OC)nc2c(OC)c(C(N)=O)ccc21` [Example 21, Dimethyl 6,6′-(ethane-1,2-diylbis(5-carbamoyl-4-methoxy-1H-benzo[d]imidazole-1,2-diyl))bis(2-bromobenzoate)]: the EC50 came to 1490 nM in assay [1] and 1630 nM in assay [2]. The results for the ΔTm at 100 µM on human STING (WT) and on human STING (HAQ) were 2.33 °C and 5.83 °C, respectively.

With `COc1c(C(N)=O)ccc2c1nc(-c1ccc(Cl)cc1-c1cn[nH]n1)n2CCn1c(-c2ccc(Cl)cc2-c2cn[nH]n2)nc2c(OC)c(C(N)=O)ccc21` [Example 24, 1,1′-(Ethane-1,2-diyl)bis(2-(4-chloro-2-(2H-1,2,3-triazol-4-yl)phenyl)-4-methoxy-1H-benzo[d]imidazole-5-carboxamide)], the half-maximal effective concentration (EC50) in assay [1] stood at 2670 nM; in assay [2] it was 4190 nM. In addition, the ΔTm at 100 µM is -3.16 °C on human STING (WT) and -0.08 °C on human STING (HAQ).

As to `COc1c(C(N)=O)ccc2c1nc(-c1c(F)cc(Cl)cc1-c1n[nH]c(=O)o1)n2CCn1c(-c2c(F)cc(Cl)cc2-c2n[nH]c(=O)o2)nc2c(OC)c(C(N)=O)ccc21` [Example 50, 1,1′-(Ethane-1,2-diyl)bis(2-(4-chloro-2-fluoro-6-(5-oxo-4,5-dihydro-1,3,4-oxadiazol-2-yl)phenyl)-4-methoxy-1H-benzo[d]imidazole-5-carboxamide)], the EC50 in assay [1] was 174 nM; in assay [2], 31.2 nM. For the same compound, the results for the ΔTm at 100 µM on human STING (WT) and on human STING (HAQ) were 12.5 °C and 26.4 °C, respectively.

As a reminder, the EC50 is the concentration needed to bring the measured effect to its halfway point. Low readings indicate a more potent agent, high ones a less potent agent. For orientation: ΔTm means the change in melting temperature against a reference sample.
